Among the data in patent US11001570B2, “6-amino-quinolinone compounds and derivatives as BCL6 inhibitors” (Boehringer Ingelheim International GmbH, priority 2016, dated 2021) are IC50 values, retold here.

The target of the experiment is T1, BCL6::BCOR (Homo sapiens, UniProt P41182, C67R/C84N/C8Q).
T1 construct: BCL6 (amino acids 5 to 129, with the following changes to the natural protein); made in house; host or cells: E. coli
Kind of experiment: BCL6::BCOR ULight TR-FRET assay. Type of experiment: binding. An excerpt: Biological Methods BCL6::BCOR ULight TR-FRET Assay:
Biotinylated BCL6 protein corresponding to BCL6 (amino acids 5 to 129, with the following changes to the natural protein: C8Q, C67R, C84N) is expressed in E. coli with a carboxy-terminal Avi tag (amino acid sequence […]). The BCOR ULight peptide uses a direct carboxy-terminal ULight tag (PerkinElmer). The sequence of the peptide is CRSEIISTAPSSWVVPGP, with the amino terminus acetylated and the ULight tag attached to the cysteine. Compounds are dispensed onto assay plates (Proxiplate 384 PLUS, white, PerkinElmer) using an Access Labcyte Workstation with the Labcyte Echo 55×from a DMSO solution. For the chosen highest assay concentration of 100 μM, 150 nl of compound solution are transferred from a 10 mM DMSO compound stock solution. A series of 11 concentrations is transferred for each compound at which each concentration is fivefold lower than the previous one. DMSO is added such that every well has a total of 150 nl compound solution. 5 μL of 1 nM BCL6 protein in assay buffer (50 mM HEPES pH 7.3; 125 mM NaCl; 1 mM GSH; 0.01% Triton-X 100; 0.03% BSA) are added to the 150 nl of compounds. After 30 minutes incubation time at room temperature, 10 μL of a mix containing BCOR ULight peptide (100 nM final assay concentration) and Streptavidin-Europium (0.75 nM final assay concentration) are added. Plates are kept at room temperature. After 240 minutes incubation time the TR-FRET signal is measured in a PerkinElmer Envision HTS Multilabel Reader using the TR-FRET LANCE Ultra specs of PerkinElmer. Each plate contains negative controls (diluted DMSO instead of test compound; BCOR peptide and Streptavidin Europium mix with BCL6 protein) and positive controls (diluted DMSO instead of test compound; BCOR peptide and Streptavidin-Europium mix without BCL6 protein). Negative and positive control values are used for normalization.

Take `C[C@@H]1C[C@H](C)CN(c2ncc(Cl)c(Nc3ccc4c(c3)cc(O[C@H](C)C(=O)O)c(=O)n4C)n2)C1` (relative stereo) [Compound I-154]: 82 nM corresponded to half-maximal inhibition (IC50).
Consider `CNC(=O)COc1cc2cc(Nc3nc(N4C[C@H](C)C[C@@H](C)C4)ncc3Cl)ccc2n(C)c1=O` (single isomer, unassigned) [Compound I-5], for which the IC50 was 12 nM. Against the preceding compound, the IC50 is about 6.8-fold lower.
The compound `CNC(=O)COc1cc2cc(Nc3nc(N4C[C@@H](C)C[C@H](C)C4)ncc3Cl)ccc2n(C)c1=O` (single isomer, unassigned) [Compound I-6] showed an IC50 of 7 nM.
Turning to `CNC(=O)COc1cc2cc(Nc3nc(N4C[C@H](CO)N[C@@H](C)C4)ncc3Cl)ccc2n(C)c1=O` (single isomer, unassigned) [Compound I-10], half-maximal inhibition (IC50) was put at 18 nM.
Compound `CNC(=O)COc1cc2cc(Nc3nc(N4C[C@@H](CO)N[C@@H](C)C4)ncc3Cl)ccc2n(C)c1=O` (single isomer, unassigned) [Compound I-11] came in with an IC50 of 13 nM.
For `C[C@@H]1C[C@H](C)CN(c2ncc(Cl)c(Nc3ccc4c(c3)cc(OC[S@@+](C)[O-])c(=O)n4C)n2)C1` (single isomer, unassigned) [Compound I-173], the IC50 turned out to be 37 nM. This IC50 lies about 2.8-fold higher than the previous one.
In turn, `C[C@@H]1C[C@H](C)CN(c2ncc(Cl)c(Nc3ccc4c(c3)cc(OC[S+](C)[O-])c(=O)n4C)n2)C1` (single isomer, unassigned) [Compound I-174] registered an IC50 of 16 nM. Against the preceding compound, the IC50 is about 2.3-fold lower.
In turn, `COC(=O)COc1cc2cc(Nc3nc(N4C[C@H](C)C[C@H](C)C4)ncc3Cl)ccc2n(C)c1=O` [Compound I-1, methyl 2-{[6-({5-chloro-2-[cis-3,5-dimethylpiperidin-1-yl]pyrimidin-4-yl}amino)-1-methyl-2-oxo-1,2-dihydroquinolin-3-yl]oxy}acetate] gave a half-inhibitory concentration (IC50) of 10 nM.
Compound `COC(=O)COc1cc2cc(Nc3nc(N4CCC(F)CC4)ncc3Cl)ccc2n(C)c1=O` [Compound I-2, methyl 2-[(6-{[5-chloro-2-(4-fluoropiperidin-1-yl)pyrimidin-4-yl]amino}-1-methyl-2-oxo-1,2-dihydro-quinolin-3-yl)oxy]-acetate] registered an IC50 of 9 nM.
The result for `CNC(=O)COc1cc2cc(Nc3nc(N4CCN(CCOC)CC4)ncc3Cl)ccc2n(C)c1=O` [Compound I-3, 2-{[6-({5-chloro-2-[4-(2-methoxyethyl)piperazin-1-yl]pyrimidin-4-yl}amino)-1-methyl-2-oxo-1,2-dihydroquinolin-3-yl]oxy}-N-methylacetamide] reads 7 nM; that for `CNC(=O)COc1cc2cc(Nc3nc(N4C[C@H](C)C[C@H](C)C4)ncc3Cl)ccc2n(C)c1=O` [Compound I-4, 2-[(6-{[5-chloro-2-(cis-3,5-dimethylpiperidin-1-yl)pyrimidin-4-yl]amino}-1-methyl-2-oxo-1,2-dihydro-quinolin-3-yl)oxy]-N-methylacetamide], 3 nM.
The result for `CNC(=O)COc1cc2cc(Nc3nc(N4C[C@H]5CC[C@@H](C4)O5)ncc3Cl)ccc2n(C)c1=O` [Compound I-7, 2-({6-[(5-chloro-2-{8-oxa-3-azabicyclo[3.2.1]octan-3-yl}pyrimidin-4-yl)amino]-1-methyl-2-oxo-1,2-dihydroquinolin-3-yl}oxy)-N-methylacetamide] reads 5 nM; that for `CNC(=O)COc1cc2cc(Nc3nc(N4C[C@H](C)C[C@@H](NC)C4)ncc3Cl)ccc2n(C)c1=O` [Compound I-8, 2-{[6-({5-chloro-2-[(3R,5R)-3-methyl-5-(methylamino)piperidin-1-yl]pyrimidin-4-yl}amino)-1-methyl-2-oxo-1,2-dihydroquinolin-3-yl]oxy}-N-methylacetamide], 21 nM; that for `CNC(=O)COc1cc2cc(Nc3nc(N4C[C@H](CO)N[C@H](C)C4)ncc3Cl)ccc2n(C)c1=O` [Compound I-9, 2-{[6-({5-chloro-2-[(3R,5R)-3-(hydroxymethyl)-5-methylpiperazin-1-yl]pyrimidin-4-yl}amino)-1-methyl-2-oxo-1,2-dihydroquinolin-3-yl]oxy}-N-methylacetamide], 41 nM.
In the case of `CNC(=O)COc1cc2cc(Nc3nc(N4CC(C)NC(CF)C4)ncc3Cl)ccc2n(C)c1=O` (centres unmarked) [Compound I-12, 2-{[6-({5-chloro-2-[3-(fluoromethyl)-5-methylpiperazin-1 yl]pyrimidin-4-yl}amino)-1-methyl-2-oxo-1,2-dihydroquinolin-3-yl]oxy}-N-methylacetamide], inhibition was half-maximal at 7 nM (IC50).
Consider `CNC(=O)COc1cc2cc(Nc3nc(N4CC(C)C(C(=O)N(C)C)C(C)C4)ncc3Cl)ccc2n(C)c1=O` (centres unmarked) [Compound I-13, 1-[5-chloro-4-({1-methyl-3-[(methylcarbamoyl)-methoxy]-2-oxo-1,2-dihydroquinolin-6-yl}amino)pyrimidin-2-yl]-N,N,3,5-tetramethylpiperidine-4-carboxamide], for which the IC50 came out at 5 nM.
Regarding `CNC(=O)COc1cc2cc(Nc3nc(N4C[C@H](C(F)(F)F)C[C@H](C(F)(F)F)C4)ncc3Cl)ccc2n(C)c1=O` [Compound I-14, 2-{[6-({2-[cis-3,5-bis(trifluoromethyl)piperidin-1-yl]-5-chloropyrimidin-4-yl}amino)-1-methyl-2-oxo-1,2-dihydroquinolin-3-yl]oxy}-N-methyl-acetamide], the IC50 was 20 nM.
The result for `CNC(=O)COc1cc2cc(Nc3nc(N4CCN(c5ccccn5)CC4)ncc3Cl)ccc2n(C)c1=O` [Compound I-15] reads 32 nM.
Compound `CNC(=O)COc1cc2cc(Nc3nc(N4CCN(CCN(C)C)C(=O)C4)ncc3Cl)ccc2n(C)c1=O` [Compound I-16] came in with an IC50 of 10 nM.
Regarding `CNC(=O)COc1cc2cc(Nc3nc(N4CCCC[C@H]4C)ncc3Cl)ccc2n(C)c1=O` [Compound I-17], half-maximal inhibition (IC50) required 8 nM.
The result for `CNC(=O)COc1cc2cc(Nc3nc(N4CCN(C(=O)CN(C)C)CC4)ncc3Cl)ccc2n(C)c1=O` [Compound I-18] reads 7 nM; that for `CNC(=O)COc1cc2cc(Nc3nc(N4CCCCC4)ncc3Cl)ccc2n(C)c1=O` [Compound I-19], 6 nM; that for `CNC(=O)COc1cc2cc(Nc3nc(N4CCN(CCN(C)C)CC4)ncc3Cl)ccc2n(C)c1=O` [Compound I-20], 6 nM.
The compound `CNC(=O)COc1cc2cc(Nc3nc(N4CCCC(F)CC4)ncc3F)ccc2n(C)c1=O` (centres unmarked) [Compound I-21] gave an IC50 of 12 nM.
Turning to `CNC(=O)COc1cc2cc(Nc3nc(N4CCC(F)CC4)ncc3F)ccc2n(C)c1=O` [Compound I-22], half-maximal inhibition (IC50) required 10 nM.
`CNC(=O)COc1cc2cc(Nc3nc(N4C[C@H](C)C[C@H](C)C4)ncc3F)ccc2n(C)c1=O` [Compound I-23] displayed an IC50 of 9 nM.
The compound `CNC(=O)COc1cc2cc(Nc3nc(N4CC(C)(C)CC(C)(C)C4)ncc3Cl)ccc2n(C)c1=O` [Compound I-24] gave an IC50 of 13 nM.
For `CNC(=O)COc1cc2cc(Nc3nc(N4CCC(F)CC4)ncc3Cl)ccc2n(C)c1=O` [Compound I-25], half-maximal inhibition (IC50) was put at 4 nM.
To `CNC(=O)COc1cc2cc(Nc3nc(N4CCC(F)(F)CC4)ncc3Cl)ccc2n(C)c1=O` [Compound I-26] belongs 4 nM.
In turn, `CNC(=O)COc1cc2cc(Nc3nc(N4CCC(F)(F)CC4)ncc3F)ccc2n(C)c1=O` [Compound I-27] returned an IC50 of 6 nM.
As to `CNC(=O)COc1cc2cc(Nc3nc(N4CCC(C(=O)N(C)C)CC4)ncc3F)ccc2n(C)c1=O` [Compound I-28], 12 nM corresponded to half-maximal inhibition (IC50).
`CNC(=O)COc1cc2cc(Nc3nc(N4CCCC(F)(F)C4)ncc3Cl)ccc2n(C)c1=O` [Compound I-29] displayed an IC50 of 10 nM.
Turning to `CNC(=O)COc1cc2cc(Nc3nc(N4CCC(C#N)CC4)ncc3Cl)ccc2n(C)c1=O` [Compound I-30], the IC50 is 5 nM.
In the case of `CNC(=O)COc1cc2cc(Nc3nc(N4CCC5(CC4)CC5)ncc3Cl)ccc2n(C)c1=O` [Compound I-31], half-maximal inhibition (IC50) required 6 nM. The IC50 values of the last two compounds are within 1.5-fold of each other.
The result for `CNC(=O)COc1cc2cc(Nc3nc(N4CCC(O)(C(F)(F)F)CC4)ncc3Cl)ccc2n(C)c1=O` [Compound I-32] reads 5 nM; that for `CNC(=O)COc1cc2cc(Nc3nc(N4CCC(C(F)(F)F)CC4)ncc3Cl)ccc2n(C)c1=O` [Compound I-33], 62 nM.
To `CNC(=O)COc1cc2cc(Nc3nc(N4CCC(Cl)CC4)ncc3Cl)ccc2n(C)c1=O` [Compound I-34] belongs 6 nM.
The compound `CNC(=O)COc1cc2cc(Nc3nc(N4CCC(C)CC4)ncc3Cl)ccc2n(C)c1=O` [Compound I-35] gave an IC50 of 8 nM.
Consider `CNC(=O)COc1cc2cc(Nc3nc(N4CCC5(CCN(C)CC5)CC4)ncc3Cl)ccc2n(C)c1=O` [Compound I-36], for which the IC50 amounted to 5 nM.
In turn, `CNC(=O)COc1cc2cc(Nc3nc(N4CCC(N5CCCCCC5)CC4)ncc3Cl)ccc2n(C)c1=O` [Compound I-37] yielded an IC50 of 7 nM. The IC50 values of the last two compounds are within 1.5-fold of each other.
On to `CCN1CCN(C2CCN(c3ncc(Cl)c(Nc4ccc5c(c4)cc(OCC(=O)NC)c(=O)n5C)n3)CC2)CC1` [Compound I-38], for which the IC50 stood at 35 nM.

The term IC50 denotes the midpoint of a concentration-inhibition curve.
